Experimental data as given in PMC4822341 (Cell Discovery, 2015).
Values joined by “and” are separate entries in the source; they are usually repeats but may differ in a detail not shown here. Equal entries are not always repeated. Each block holds one compound with its values, some of them ahead of it.

Assays:
GR [1] = target: T1, GR (Homo sapiens, UniProt P04150); assay: NF-κB-Luc repression reporter assay in AD293 cells; type: cell-based; details: TNFα 2 ng ml^-1
T1 construct: expressed in transfected cells; host or cells: AD293
T1 sequence (P04150 1-777): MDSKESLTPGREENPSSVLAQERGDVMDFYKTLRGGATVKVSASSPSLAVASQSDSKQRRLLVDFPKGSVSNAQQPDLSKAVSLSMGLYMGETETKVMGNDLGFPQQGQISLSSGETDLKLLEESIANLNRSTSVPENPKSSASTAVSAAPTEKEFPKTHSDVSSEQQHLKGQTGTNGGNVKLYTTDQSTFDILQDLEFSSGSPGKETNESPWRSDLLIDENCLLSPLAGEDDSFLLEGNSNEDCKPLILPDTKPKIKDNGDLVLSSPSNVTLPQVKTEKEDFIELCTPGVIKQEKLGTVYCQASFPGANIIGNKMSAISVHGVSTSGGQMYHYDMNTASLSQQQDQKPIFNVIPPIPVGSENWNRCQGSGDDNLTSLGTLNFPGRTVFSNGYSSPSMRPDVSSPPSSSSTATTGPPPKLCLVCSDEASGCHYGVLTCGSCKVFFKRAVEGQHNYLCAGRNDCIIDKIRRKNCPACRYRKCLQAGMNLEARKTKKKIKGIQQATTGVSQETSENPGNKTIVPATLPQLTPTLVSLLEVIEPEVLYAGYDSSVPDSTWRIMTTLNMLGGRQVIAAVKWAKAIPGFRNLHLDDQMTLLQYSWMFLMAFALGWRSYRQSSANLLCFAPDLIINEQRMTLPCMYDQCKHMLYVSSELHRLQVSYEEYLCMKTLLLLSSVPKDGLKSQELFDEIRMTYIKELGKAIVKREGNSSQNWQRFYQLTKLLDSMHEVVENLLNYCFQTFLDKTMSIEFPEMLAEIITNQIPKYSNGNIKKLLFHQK
Description: (§1) Similar to previous reports, for induction 100 ng pHHLuc (MMTV-Luc) plasmid, 0.1 ng pRShGR together with 5 ng phRGtkRenilla were transfected by X-tremeGENE 9 (Roche) into AD293 cells per well in 24-well plate. For transrepression, 10 ng AP-1-Luc or 10ng pNF-κB-luc, 100 ng pRShGR and 5 ng phRGtkRenilla were transfected into AD293 cells per well. We used the same transfection protocol for the MR and PR assays, except of the use of 0.1 ng MR or PR plasmid to substitute GR. One day after transfection, for induction, cells were directly treated by steroids for 16 h; for repression, cells were treated with either PMA at 0.6 ng ml^–1 (for AP-1 reporter) or TNFα at 2 ng ml^–1 (for NF-κB reporter), together with various steroids. Cells were collected by addition of 1× Passive Lysis Buffer (Promega, Madison, WI, USA), and luciferase activity was assayed by the Dual-Glo Luciferase system (Promega). Data were plotted as firefly luciferase activity normalized to Renilla luciferase activity in Relative Luciferase Units.
Error bars indicate SD, n=3.

GR [2] = target: T1, GR; assay: In vitro H3-Dex competition GR ligand-binding assay; details: H3-DEX 15 nM, GR cytosol
Excerpt: The in vitro GR binding assay is similar to the one described previously. […] Data were plotted as a standard competition curve by GraphPad Prism 5.

[3] = tested on: IL-6 release from A549 cells; assay: Cytokine inhibition assay, IL-6 release from A549 cells; type: cell-based; details: Homo sapiens, TNFα 2 ng ml^-1, read-out: IC50 (suppression of IL-6 release)
Description: A549 cells into 24-well plates were split at 40 000 cells/well. After 1 day growth, cells were treated with various steroids 1 h before overnight induction of inflammation by 2 ng ml^–1 TNFα according to literature. Sixteen hours after treatment, cell culture supernatants were subjected to anti-IL-6 Elisa (R&D Quantikine Elisa Human IL-6 Kit) according to the manual.

GR [4] = target: T1, GR; assay: AP-1-Luc repression reporter assay in AD293 cells; type: cell-based; details: AP-1 reporter, PMA 0.6 ng ml^-1
Description: as §1

RAW264.7 cells = assay: Gene expression (microarray and quantitative PCR) in LPS-stimulated RAW264.7 cells; type: cell-based, mouse; details: RAW264.7, LPS, steroid 100 nM
Description: Mouse macrophage RAW264.7 cells were grown in 6-well plates to reach 80% confluence. The cells were pretreated with different steroids at 100 nM 1 h before overnight induction of inflammation by 1 μg ml^–1 LPS. Total RNA was isolated using a Qiagen mini RNA extraction kit (Valencia, CA, USA). Complementary DNA was synthesized from total RNA with an Invitrogen Superscript cDNA synthesis kit (Carlsbad, CA, USA). Target genes were quantified with a Power SYBR Green Real-Time PCR kit (Carlsbad, CA, USA) (ABI) in a StepOnePlus real-time PCR instrument (Applied Biosystems, Carlsbad, CA, USA). In every case, GAPDH (glyceraldehyde-3-phosphate dehydrogenase) was used as an internal control and data were analyzed by the ΔΔCt method. The specificity of target primers was tested both in a dissociation (melting) curve (Supplementary Figure S4) and against a water control. Primer sequence information is included in Supplementary Figure S4.
RAW264.7 cells were treated with designated steroids at 100 nM 1 h before overnight LPS stimulation of inflammation. Each treatment was duplicated. The following day, RNA samples were isolated using a Qiagen mini RNA extraction kit and applied to the Agilent Whole Mouse Genome 8x60K gene expression platform. Data were analyzed by the limma package in R program. Heat maps were generated by the HeatMap 2 package. Pathway analysis was done via DAVID Bioinformatics Resources 6.7 (NIAID) and Venn diagrams were generated by BioVenn.

GR [5] = target: T1, GR; details: cited from earlier work
OVA-induced asthma = assay: OVA-induced mouse asthma model; type: in vivo, Balb/c mice; details: for repression of airway hyper-responsiveness (AHR): Balb/c mice; for % repression of AHR: ACH challenge 4 mg kg^-1
Description: As described before, 7–9-week-old female Balb/c mice (Taconic) were sensitized on days 0, 7 and 14 by i.p. injection of 50 μg OVA/1 mg alum in a total of 200 μl saline. Control mice received an equal volume of alum only. Mice were lightly anesthetized by isoflurane inhalation and challenged with intranasal OVA (100 μg in 30 μl saline) or saline on days 21–23, and were i.p. injected with different steroids. Twenty-four hours after the last challenge and treatment, pulmonary resistance was measured in response to a range of concentrations of intravenous acetylcholine using the forced oscillation technique with the FlexiVent system (SCIREQ) as previously described. Serum samples were analyzed for OVA-specific IgE using an ELISA (BD Biosciences, clone R35-118). Total and differential cell counts were determined by hemocytometer and by light microscopic evaluation of more than 300 cells per slide as previously described. After lavage, lungs were inflated with 10% buffered formalin to 25 cm H2O and transferred to 10% buffered formalin. Sections (5 μm) were stained with H&E for semi-quantitative assessment of inflammation and PAS for evaluation of mucus production. To quantify inflammation, H&E-stained lung sections were de-identified for blinding and scored for peribronchial and perivascular inflammatory cell infiltration: grade 0, no infiltration; grade 1, <25% of examined area; grade 2, 25–50%; grade 3, 51–75%; and grade 4, >75%. To quantify goblet cell hyperplasia, PAS stained lung sections were de-identified for blinding and scored for the percentage of PAS positive cells among airway epithelial cells: grade 0: none; grade 1 <25% of airway epithelial cells; grade 2, 25–50%; grade 3, 51–75%; and grade 4, >75%.

GR [6] = target: T1, GR; assay: MMTV-Luc induction reporter assay in AD293 cells; type: cell-based; details: 16 h
Description: as §1

[7] = target: β2-adrenergic receptor induction; set-up: method as in PMID 10433509; details: A549 cells; cited from earlier work
[8] = tested on: granulocyte macrophage colony-stimulating factor release; set-up: method as in PMID 10433509; details: A549 cells; read-out: IC50 to inhibit granulocyte macrophage colony-stimulating factor release; cited from earlier work
[9] = Body weight (growth inhibition) of DBA/1 mice; type: in vivo; details: 1 mg kg^-1 daily i.p., 2 weeks, 7-week-old mice
Description: (§2) Figure 5 Examination of side effects of VSGC12 and FF at the effective dose. (a) Body weight of DBA/1 mice treated with the indicated daily dose of steroids for 2 weeks. Mice body weight was measured at day 0, 7 and 14. (b) Insulin-tolerance test of mice treated with the indicated daily doses of steroids for 7 days. Glucose level was measured at day 7 at various time points before and after insulin injection. Data were plotted as percent of the glucose level of time 0. (c) Plasma insulin levels of mice treated with the indicated daily doses of steroid for 7 days. (d) Spleen size and weight for mice treated with the indicated daily doses of steroid for 2 weeks. (e) Cortical bone thickness of femurs of mice treated with the indicated daily doses of steroid for 2 weeks. (f) Bone stiffness of femurs of mice treated with the indicated daily doses of steroid for 2 weeks. Mouse strain: DBA/1. Each treatment n=5, error bars indicate s.e.m., *P<0.05; **P<0.01; ***P<0.001.

[10] = Spleen size and weight (spleen atrophy); type: in vivo, DBA/1 mice; details: 1 mg kg^-1 daily, 2 weeks
Description: as §2

[11] = Bone density (μCT) and biomechanics testing of femurs; type: in vivo, DBA/1 mice; details: 1 mg kg^-1 daily, 2 weeks
Description: Femur bones were collected and scanned by μCT (Skyscan 1172 uCT) for quantification of trabecular and cortical bone parameters. The thresholds for μCT quantification of trabecular and cortical bone parameters were set at 80–100 and 100–110, respectively. μCT analyses of cortical bone parameters were performed on 100-μCT slices (1 mm total) from the middle shaft of femurs; trabecular parameters were assessed in 100-μCT slices (1 mm total) immediately below the distal growth plate of the femur. Following uCT scans, the femurs were individually tested on a TestResources 570 Force Transducer. Bones were thawed in PBS before being tested, to ensure no brittleness was due to freezing. […] Data points were collected at a frequency of 50 Hz and a deflection rate of 0.005 mm s^–1.

[12] = Insulin-tolerance test and plasma insulin level; details: 1 mg kg^-1 daily, 7 days
Description: DBA/1 mice (Taconic) were weighted just before the experiment. After 4 h fasting, mice were i.p. injected with 0.75 U kg^–1 of insulin (Huamlin R). Blood samples were taken from the tail at time 0 (before insulin injection), 15, 30, 45, 60, 90 and 120 min after injection. Plasma glucose levels were measured using an AlphaTrak glucose meter. All data were plotted as percent of glucose level at time 0. Endogenous insulin levels were measured using the Ultra Sensitive Mouse Insulin ELISA kit (Crystal Chem, Downers Groove, IL, USA).

SMILES: CON(C)C(=O)C1(OC(=O)c2ccco2)CCC2C3CCC4=Cc5c(cnn5-c5ccccc5)CC4(C)C3C(O)CC21C (stereo not drawn) [VSG22]
IC50 (GR [1]): 100 pM
IC50 (GR [2]): 4100 pM
IC50 [3]: 70 pM
IC50 (GR [4]): 40 pM
inhibition activity of pro-inflammatory cytokines (microarray, normalized to DEX) (RAW264.7 cells): much stronger inhibition activity than DEX
increase in potency relative to the original backbone VSG24 (GR [5]): more than 1 000 fold
repression of airway hyper-responsiveness (AHR) (OVA-induced asthma; 1 mg kg^-1 i.p.): neither VSG22 nor DEX can effectively repress the airway hyper-responsiveness
EC50 (GR [6]): 740 pM

IC50 [3]: 800 pM
SMILES: C[C@@H]1C[C@H]2[C@@H]3CCC4=CC(=O)C=C[C@]4(C)[C@@]3(F)[C@@H](O)C[C@]2(C)[C@@]1(O)C(=O)CO [DEX, dexamethasone, reference compound]
infiltration of immune responsive cells into the lungs (total and differential cell count) (OVA-induced asthma; 1 mg kg^-1 i.p.): only a mild effect
repression of airway hyper-responsiveness (AHR) (OVA-induced asthma; 1 mg kg^-1 i.p.): neither VSG22 nor DEX can effectively repress the airway hyper-responsiveness

SMILES: CCC(=O)O[C@]1(C(=O)SCF)[C@H](C)C[C@H]2[C@@H]3C[C@H](F)C4=CC(=O)C=C[C@]4(C)[C@@]3(F)[C@@H](O)C[C@@]21C [FP, fluticasone propionate]
EC50 [7]: 1100 pM
IC50 [8]: 18 pM

IC50 [3]: 30 pM
atrophy of the spleen [10]: dramatic shrinkage of the spleen
SMILES: C[C@@H]1C[C@H]2[C@@H]3C[C@H](F)C4=CC(=O)C=C[C@]4(C)[C@@]3(F)[C@@H](O)C[C@]2(C)[C@@]1(OC(=O)c1ccco1)C(=O)SCF [FF, fluticasone furoate, reference compound]
growth inhibition (body weight) [9]: significant growth inhibition
inhibition activity of pro-inflammatory cytokines (microarray, normalized to DEX) (RAW264.7 cells): much stronger inhibition activity than DEX
% repression of total differentiated cells (OVA-induced asthma; 0.125 mg/kg): 14%
% repression of AHR (OVA-induced asthma; 0.125 mg/kg): < 28% and 28%
% repression of total differentiated cells (OVA-induced asthma; 0.25 mg/kg): 30%
% repression of AHR (OVA-induced asthma; 0.25 mg/kg): < 35% and 34%
infiltration of immune responsive cells into the lungs (total and differential cell count) (OVA-induced asthma; 1 mg kg^-1 i.p.): strongly repressed the infiltration of immune responsive cells into the lungs
repression of airway hyper-responsiveness (AHR) (OVA-induced asthma; 1 mg kg^-1 i.p.): strongly suppress the AHR to the basal level
histology score, PAS staining (OVA-induced asthma; 1 mg kg^-1 i.p., grade 0-4): 1.5
histology score, hematoxylin and eosin staining (OVA-induced asthma; 1 mg kg^-1 i.p., grade 0-4): 0.83
% repression of AHR (OVA-induced asthma; 1 mg/kg, OVA+DMSO 0, saline 100): 95%
% repression of total differentiated cells (OVA-induced asthma; 1 mg/kg, saline 100, OVA+DMSO 0): 94%
minimal dose to maximally repress the inflammation (maximal effective dose) (OVA-induced asthma; judged from AHR, i.p.): 1 mg kg^–1
OVA-IgE levels (OVA-induced asthma; lower doses (0.25, 0.125, 0.0625 mg kg^-1)): unexpectedly higher than the vehicle control
bone strength (stiffness) of femurs [11]: dramatic decrease of bone strength in terms of stiffness
cortical bone thickness of femurs ([11]; μCT): dramatic decrease of the cortical bone thickness
insulin resistance in insulin-tolerance test [12]: hyper-insulin resistance
plasma (endogenous) insulin level [12]: dramatic increase of the endogenous insulin level
